Measurements from US20190216761A1, “COMPOSITIONS COMPRISING 15-HEPE AND METHODS OF USING THE SAME” (Afimmune Limited, priority 2015, published 2019).
Residue numbers refer to the chain shown, from its start. Marks after values point to notes of the source that are not given here.

Experiments:
Test in all cases: PPAR agonist reporter assay (Gal4 hybrid receptor, luciferase)
rPPARδ = assay type: cell-based, rat
Method: (§1) This study utilized proprietary reporter cells expressing a hybrid receptor comprising the N-terminal Gal4 DNA binding domain fused to the ligand binding domain of the specific human nuclear receptor (hPPARα, hPPARδ, and hPPARγ) and rat nuclear receptor (rPPARα, rPPARδ, and rPPARγ). The reporter vectors used in this Example comprise the firefly luciferase gene functionally linked to the Gal4 upstream activation sequence.
(§2) Nuclear Receptor assay was performed by dispensing 100 μL of a suspension of Reporter Cells in Cell Recovery Medium (CRM) containing 10% charcoal stripped FBS into each well of a white 96-well plate. Test compounds were diluted using compound screening medium (CSM) containing 10% charcoal stripped FBS to generate “2×-concentration” treatment media. Immediately after this dilution step, 100 μL of each diluted 2×-concentration treatment medium was dispensed (in triplicate) into the Reporter Cell-containing assay wells.
(§3) After incubation at 37° C. for 24 hours, the treatment media was discarded. 100 μL of Luciferase Detection Reagent substrate was added to each well and RLUs were quantified from each well to determine nuclear receptor activities.

rPPARγ = biological target: T1, rPPARγ (Rattus norvegicus, UniProt O88275); assay type: cell-based
T1 construct: expressed in transfected cells
T1 sequence (O88275 238-503 limits assumed): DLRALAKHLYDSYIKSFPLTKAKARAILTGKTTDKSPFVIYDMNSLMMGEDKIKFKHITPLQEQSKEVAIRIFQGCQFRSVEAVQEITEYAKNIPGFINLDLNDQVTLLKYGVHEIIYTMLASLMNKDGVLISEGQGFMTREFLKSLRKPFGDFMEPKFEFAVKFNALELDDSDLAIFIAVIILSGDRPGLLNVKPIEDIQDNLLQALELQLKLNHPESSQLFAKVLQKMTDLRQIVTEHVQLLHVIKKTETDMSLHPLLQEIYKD
Method: as §1, §2, §3

hPPARα = biological target: T2, hPPARα (Homo sapiens, UniProt Q07869); assay type: cell-based
T2 construct: expressed in transfected cells
T2 sequence (Q07869 239-466 limits assumed): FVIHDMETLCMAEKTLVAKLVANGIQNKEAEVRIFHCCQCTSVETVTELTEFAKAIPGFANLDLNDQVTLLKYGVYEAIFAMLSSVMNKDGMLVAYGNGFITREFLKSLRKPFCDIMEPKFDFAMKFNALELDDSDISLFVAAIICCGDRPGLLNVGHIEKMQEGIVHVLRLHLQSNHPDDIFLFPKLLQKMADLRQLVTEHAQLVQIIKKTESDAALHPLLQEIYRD
Method: as §1, §2, §3

hPPARδ = biological target: T3, hPPARδ (Homo sapiens, UniProt Q03181); assay type: cell-based
T3 construct: expressed in transfected cells
T3 sequence (Q03181 211-439 limits assumed): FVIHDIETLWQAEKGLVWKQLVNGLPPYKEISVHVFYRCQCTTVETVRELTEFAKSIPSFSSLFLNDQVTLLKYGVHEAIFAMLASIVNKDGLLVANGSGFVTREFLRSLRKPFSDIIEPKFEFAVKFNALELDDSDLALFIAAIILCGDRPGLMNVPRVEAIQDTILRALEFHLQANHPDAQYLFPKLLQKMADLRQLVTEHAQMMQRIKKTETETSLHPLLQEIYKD
Method: as §1, §2, §3

rPPARα = biological target: T4, rPPARα (Rattus norvegicus, UniProt P37230); assay type: cell-based
T4 construct: expressed in transfected cells
T4 sequence (P37230 239-466 limits assumed): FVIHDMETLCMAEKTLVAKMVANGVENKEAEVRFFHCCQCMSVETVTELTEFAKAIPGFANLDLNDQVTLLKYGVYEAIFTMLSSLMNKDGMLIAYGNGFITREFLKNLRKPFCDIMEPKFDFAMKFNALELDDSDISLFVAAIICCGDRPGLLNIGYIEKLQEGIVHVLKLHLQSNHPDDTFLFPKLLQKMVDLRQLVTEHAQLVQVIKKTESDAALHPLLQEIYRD
Method: as §1, §2, §3

hPPARγ = biological target: T5, hPPARγ (Homo sapiens, UniProt P37231); assay type: cell-based
T5 construct: expressed in transfected cells
T5 sequence (P37231 238-503 limits assumed): T1 sequence (O88275 238-503 limits assumed) with N93S, I98V, V226L, H245Q
Method: as §1, §2, §3

CC/C=C\C/C=C\C/C=C\C/C=C\C/C=C\CCCC(=O)OCC [EPA-EE, EPA ethyl ester, reference compound]
Fold-Activation (vs. 0.10% DMSO) rPPAR-δ (rPPARδ; 137 nM): 1.3 fold | Fold-Activation (vs. 0.10% DMSO) rPPAR-δ (rPPARδ; 412 nM): 1.3 fold | Fold-Activation (vs. 0.10% DMSO) rPPAR-δ (rPPARδ; 1,235 nM): 1.2 fold | Fold-Activation (vs. 0.10% DMSO) rPPAR-δ (rPPARδ; 3,704 nM): 1.5 fold | Fold-Activation (vs. 0.10% DMSO) rPPAR-δ (rPPARδ; 11,111 nM): 1.4 fold | Fold-Activation (vs. 0.10% DMSO) rPPAR-δ (rPPARδ; 33,333 nM): 1.5 fold | Fold-Activation (vs. 0.10% DMSO) rPPAR-δ (rPPARδ; 100,000 nM): 2.0 fold | Fold-Activation (vs. 0.10% DMSO) rPPAR-δ (rPPARδ; 300,000 nM): 3.6* fold | Fold-Activation (vs. 0.10% DMSO) rPPAR-γ (rPPARγ; 137 nM): 0.90 fold | Fold-Activation (vs. 0.10% DMSO) rPPAR-γ (rPPARγ; 412 nM): 0.94 fold | Fold-Activation (vs. 0.10% DMSO) rPPAR-γ (rPPARγ; 1,235 nM): 0.99 fold | Fold-Activation (vs. 0.10% DMSO) rPPAR-γ (rPPARγ; 3,704 nM): 0.97 fold | Fold-Activation (vs. 0.10% DMSO) rPPAR-γ (rPPARγ; 11,111 nM): 0.97 fold | Fold-Activation (vs. 0.10% DMSO) rPPAR-γ (rPPARγ; 33,333 nM): 0.99 fold | Fold-Activation (vs. 0.10% DMSO) rPPAR-γ (rPPARγ; 100,000 nM): 1.0 fold | Fold-Activation (vs. 0.10% DMSO) rPPAR-γ (rPPARγ; 300,000 nM): 2.1* fold | Fold-Activation (vs. 0.10% DMSO) hPPAR-α (hPPARα; 137 nM): 0.88 fold | Fold-Activation (vs. 0.10% DMSO) hPPAR-α (hPPARα; 412 nM): 1.0 fold | Fold-Activation (vs. 0.10% DMSO) hPPAR-α (hPPARα; 1,235 nM): 0.90 fold | Fold-Activation (vs. 0.10% DMSO) hPPAR-α (hPPARα; 3,704 nM): 0.89 fold | Fold-Activation (vs. 0.10% DMSO) hPPAR-α (hPPARα; 11,111 nM): 0.86 fold | Fold-Activation (vs. 0.10% DMSO) hPPAR-α (hPPARα; 33,333 nM): 0.95 fold | Fold-Activation (vs. 0.10% DMSO) hPPAR-α (hPPARα; 100,000 nM): 1.1 fold | Fold-Activation (vs. 0.10% DMSO) hPPAR-α (hPPARα; 300,000 nM): 2.0* fold | Fold-Activation (vs. 0.10% DMSO) hPPAR-δ (hPPARδ; 137 nM): 1.2 fold | Fold-Activation (vs. 0.10% DMSO) hPPAR-δ (hPPARδ; 412 nM): 1.2 fold | Fold-Activation (vs. 0.10% DMSO) hPPAR-δ (hPPARδ; 1,235 nM): 1.3 fold | Fold-Activation (vs. 0.10% DMSO) hPPAR-δ (hPPARδ; 3,704 nM): 1.5 fold | Fold-Activation (vs. 0.10% DMSO) hPPAR-δ (hPPARδ; 11,111 nM): 1.4 fold | Fold-Activation (vs. 0.10% DMSO) hPPAR-δ (hPPARδ; 33,333 nM): 1.8 fold | Fold-Activation (vs. 0.10% DMSO) hPPAR-δ (hPPARδ; 100,000 nM): 2.6* fold | Fold-Activation (vs. 0.10% DMSO) hPPAR-δ (hPPARδ; 300,000 nM): 3.8* fold | Fold-Activation (vs. 0.10% DMSO) rPPAR-α (rPPARα; 137 nM): 1.3 fold | Fold-Activation (vs. 0.10% DMSO) rPPAR-α (rPPARα; 412 nM): 1.3 fold | Fold-Activation (vs. 0.10% DMSO) rPPAR-α (rPPARα; 1,235 nM): 1.3 fold | Fold-Activation (vs. 0.10% DMSO) rPPAR-α (rPPARα; 3,704 nM): 1.3 fold | Fold-Activation (vs. 0.10% DMSO) rPPAR-α (rPPARα; 11,111 nM): 1.4 fold | Fold-Activation (vs. 0.10% DMSO) rPPAR-α (rPPARα; 33,333 nM): 1.3 fold | Fold-Activation (vs. 0.10% DMSO) rPPAR-α (rPPARα; 100,000 nM): 1.3 fold | Fold-Activation (vs. 0.10% DMSO) rPPAR-α (rPPARα; 300,000 nM): 1.5 fold | Fold-Activation (vs. 0.10% DMSO) hPPAR-γ (hPPARγ; 137 nM): 0.90 fold | Fold-Activation (vs. 0.10% DMSO) hPPAR-γ (hPPARγ; 412 nM): 0.94 fold | Fold-Activation (vs. 0.10% DMSO) hPPAR-γ (hPPARγ; 1,235 nM): 0.94 fold | Fold-Activation (vs. 0.10% DMSO) hPPAR-γ (hPPARγ; 3,704 nM): 0.88 fold | Fold-Activation (vs. 0.10% DMSO) hPPAR-γ (hPPARγ; 11,111 nM): 1.0 fold | Fold-Activation (vs. 0.10% DMSO) hPPAR-γ (hPPARγ; 33,333 nM): 0.78 fold | Fold-Activation (vs. 0.10% DMSO) hPPAR-γ (hPPARγ; 100,000 nM): 1.2 fold | Fold-Activation (vs. 0.10% DMSO) hPPAR-γ (hPPARγ; 300,000 nM): 2.8* fold
